ChEMBL document CHEMBL1201862, “PubChem BioAssay data set” (2004)
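Briefly, cells in 96-well plates were exposed to five compound concentrations for 48 h, and endpoints were estimated by linear interpolation. Here, GI50 denotes the concentration required for 50% inhibition of growth.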 Activity calls are given as the source filed them. No stated cut-off is given here; in the data, active = GI50 up to about 1.1 µM and inactive = higher.

Key:
Assay in all cases: NCI-60 cell line screen, 48 h
786-0 = test system: 786-0
A498 = test system: A498
A549 = test system: A549
ACHN = test system: ACHN
BT-549 = test system: BT-549
CAKI-1 = test system: CAKI-1
CCRF-CEM = test system: CCRF-CEM
COLO 205 = test system: COLO 205
DU-145 = test system: DU-145
EKVX = test system: EKVX
HCC 2998 = test system: HCC 2998
HCT-116 = test system: HCT-116
HCT-15 = test system: HCT-15
HL-60 = test system: HL-60
HOP-92 = test system: HOP-92
HT-29 = test system: HT-29
Hs-578T = test system: Hs-578T
IGROV-1 = test system: IGROV-1
K562 = test system: K562
KM12 = test system: KM12
LOX IMVI = test system: LOX IMVI
M14 = test system: M14
MCF7 = test system: MCF7
MDA-MB-231 = test system: MDA-MB-231
MDA-MB-435 = test system: MDA-MB-435
MOLT-4 = test system: MOLT-4
Malme-3M = test system: Malme-3M
NCI-H226 = test system: NCI-H226
NCI-H23 = test system: NCI-H23
NCI-H460 = test system: NCI-H460
NCI-H522 = test system: NCI-H522
NCI/ADR-RES = test system: NCI/ADR-RES
OVCAR-3 = test system: OVCAR-3
OVCAR-4 = test system: OVCAR-4
OVCAR-5 = test system: OVCAR-5
OVCAR-8 = test system: OVCAR-8
PC-3 = test system: PC-3
RPMI-8226 = test system: RPMI-8226
RXF 393 = test system: RXF 393
SF-268 = test system: SF-268
SF-295 = test system: SF-295
SF-539 = test system: SF-539
SK-MEL-28 = test system: SK-MEL-28
SK-MEL-2 = test system: SK-MEL-2
SK-MEL-5 = test system: SK-MEL-5
SK-OV-3 = test system: SK-OV-3
SN12C = test system: SN12C
SNB-19 = test system: SNB-19
SNB-75 = test system: SNB-75
SR = test system: SR
SW-620 = test system: SW-620
T47D = test system: T47D
U-251 = test system: U-251
UACC-257 = test system: UACC-257
UACC-62 = test system: UACC-62
UO-31 = test system: UO-31
HOP-62 = test system: HOP-62
TK-10 = test system: TK-10
MDA-N = test system: MDA-N

## O=C(C[n+]1ccccc1)N/N=C(\Cc1nc2ccc([N+](=O)[O-])cc2nc1O)C(=O)Nc1cc(Cl)c(Cl)cc1Cl
786-0
  GI50: > 100 µM (inactive)
A498
  GI50: > 100 µM (inactive)
A549
  GI50: > 100 µM (inactive)
ACHN
  GI50: > 100 µM (inactive)
BT-549
  GI50: > 100 µM (inactive)
CAKI-1
  GI50: 65.6 µM (inactive)
CCRF-CEM
  GI50: > 100 µM (inactive)
COLO 205
  GI50: 76.2 µM (inactive)
DU-145
  GI50: > 100 µM (inactive)
EKVX
  GI50: > 100 µM (inactive)
HCC 2998
  GI50: 59 µM (inactive)
HCT-116
  GI50: > 100 µM (inactive)
HCT-15
  GI50: > 100 µM
HL-60
  GI50: > 100 µM (inactive)
HOP-92
  GI50: > 100 µM (inactive)
HT-29
  GI50: > 100 µM (inactive)
Hs-578T
  GI50: > 100 µM (inactive)
IGROV-1
  GI50: > 100 µM (inactive)
K562
  GI50: > 100 µM (inactive)
KM12
  GI50: 60.3 µM (inactive)
LOX IMVI
  GI50: 60.1 µM (inactive)
M14
  GI50: > 100 µM (inactive)
MCF7
  GI50: 67.3 µM (inactive)
MDA-MB-231
  GI50: 41.9 µM (inactive)
MDA-MB-435
  GI50: > 100 µM (inactive)
MOLT-4
  GI50: > 100 µM (inactive)
Malme-3M
  GI50: > 100 µM (inactive)
NCI-H226
  GI50: 50.5 µM (inactive)
NCI-H23
  GI50: > 100 µM (inactive)
NCI-H460
  GI50: 87.9 µM (inactive)
NCI-H522
  GI50: 61.8 µM (inactive)
NCI/ADR-RES
  GI50: 60.1 µM (inactive)
OVCAR-3
  GI50: 76 µM (inactive)
OVCAR-4
  GI50: 79.4 µM (inactive)
OVCAR-5
  GI50: > 100 µM (inactive)
OVCAR-8
  GI50: > 100 µM (inactive)
PC-3
  GI50: > 100 µM (inactive)
RPMI-8226
  GI50: > 100 µM (inactive)
RXF 393
  GI50: > 100 µM (inactive)
SF-268
  GI50: > 100 µM (inactive)
SF-295
  GI50: > 100 µM (inactive)
SF-539
  GI50: > 100 µM (inactive)
SK-MEL-28
  GI50: > 100 µM (inactive)
SK-MEL-2
  GI50: > 100 µM (inactive)
SK-MEL-5
  GI50: 95.1 µM (inactive)
SK-OV-3
  GI50: > 100 µM (inactive)
SN12C
  GI50: > 100 µM (inactive)
SNB-19
  GI50: > 100 µM (inactive)
SNB-75
  GI50: 19.4 µM (inactive)
SR
  GI50: > 100 µM (inactive)
SW-620
  GI50: > 100 µM (inactive)
T47D
  GI50: 68.7 µM (inactive)
U-251
  GI50: > 100 µM (inactive)
UACC-257
  GI50: > 100 µM (inactive)
UACC-62
  GI50: > 100 µM (inactive)
UO-31
  GI50: 50.4 µM (inactive)

## c1ccc(Sc2nc(Sc3ccccc3)nc(Sc3ccccc3)n2)cc1
A498
  GI50: 29.9 µM (inactive)
A549
  GI50: 28.5 µM (inactive)
ACHN
  GI50: 29.8 µM (inactive)
BT-549
  GI50: > 100 µM (inactive)
CAKI-1
  GI50: 38.9 µM (inactive)
CCRF-CEM
  GI50: 6.46 µM (inactive)
COLO 205
  GI50: 18.6 µM (inactive)
DU-145
  GI50: 21.1 µM (inactive)
EKVX
  GI50: 35 µM (inactive)
HCC 2998
  GI50: 18.1 µM (inactive)
HCT-116
  GI50: 60.1 µM (inactive)
HCT-15
  GI50: 33.4 µM
HL-60
  GI50: 6.38 µM (inactive)
HOP-62
  GI50: 35.7 µM (inactive)
HT-29
  GI50: 38.9 µM (inactive)
Hs-578T
  GI50: 13.3 µM (inactive)
K562
  GI50: > 100 µM (inactive)
KM12
  GI50: 13.9 µM (inactive)
LOX IMVI
  GI50: > 100 µM (inactive)
M14
  GI50: > 100 µM (inactive)
MCF7
  GI50: 26.5 µM (inactive)
MDA-MB-231
  GI50: > 100 µM (inactive)
MDA-MB-435
  GI50: 52.1 µM (inactive)
MOLT-4
  GI50: 17.8 µM (inactive)
Malme-3M
  GI50: > 100 µM (inactive)
NCI-H226
  GI50: 25.9 µM (inactive)
NCI-H23
  GI50: > 100 µM (inactive)
NCI-H460
  GI50: 47.6 µM (inactive)
NCI-H522
  GI50: 97.1 µM (inactive)
OVCAR-3
  GI50: 13.3 µM (inactive)
OVCAR-4
  GI50: 55 µM (inactive)
OVCAR-5
  GI50: 58.7 µM (inactive)
PC-3
  GI50: 7.11 µM (inactive)
RPMI-8226
  GI50: 15.4 µM (inactive)
RXF 393
  GI50: 61.7 µM (inactive)
SF-268
  GI50: 32 µM (inactive)
SF-295
  GI50: 63.7 µM (inactive)
SF-539
  GI50: 31.7 µM (inactive)
SK-MEL-28
  GI50: 43.7 µM (inactive)
SK-MEL-2
  GI50: 37.2 µM (inactive)
SK-MEL-5
  GI50: > 100 µM (inactive)
SK-OV-3
  GI50: > 100 µM (inactive)
SN12C
  GI50: > 100 µM (inactive)
SNB-19
  GI50: 31.8 µM (inactive)
SR
  GI50: > 100 µM (inactive)
T47D
  GI50: 22.3 µM (inactive)
TK-10
  GI50: 44.6 µM (inactive)
U-251
  GI50: 19.4 µM (inactive)
UACC-257
  GI50: 30.3 µM (inactive)
UACC-62
  GI50: > 100 µM (inactive)
UO-31
  GI50: 57 µM (inactive)

## C1=C(c2ccccc2)O[C@H](COCc2ccccc2)C(OCc2ccccc2)[C@@H]1OCc1ccccc1 (stereo partly specified)
786-0
  GI50: > 10 µM (inactive)
A549
  GI50: > 10 µM (inactive)
CAKI-1
  GI50: > 10 µM (inactive)
CCRF-CEM
  GI50: > 10 µM (inactive)
COLO 205
  GI50: > 10 µM (inactive)
DU-145
  GI50: > 10 µM (inactive)
EKVX
  GI50: > 10 µM (inactive)
HCC 2998
  GI50: > 10 µM (inactive)
HCT-15
  GI50: > 10 µM
HL-60
  GI50: > 10 µM (inactive)
HOP-62
  GI50: > 10 µM (inactive)
HT-29
  GI50: > 10 µM (inactive)
IGROV-1
  GI50: > 10 µM (inactive)
K562
  GI50: > 10 µM (inactive)
KM12
  GI50: > 10 µM (inactive)
M14
  GI50: > 10 µM (inactive)
MCF7
  GI50: > 10 µM (inactive)
MDA-MB-231
  GI50: > 10 µM (inactive)
MDA-N
  GI50: > 10 µM (inactive)
MOLT-4
  GI50: > 10 µM (inactive)
Malme-3M
  GI50: > 10 µM (inactive)
NCI-H23
  GI50: > 10 µM (inactive)
OVCAR-8
  GI50: > 10 µM (inactive)
PC-3
  GI50: > 10 µM (inactive)
RPMI-8226
  GI50: > 10 µM (inactive)
RXF 393
  GI50: > 10 µM (inactive)
SF-268
  GI50: > 10 µM (inactive)
SF-295
  GI50: > 10 µM (inactive)
SK-MEL-28
  GI50: > 10 µM (inactive)
SK-MEL-5
  GI50: > 10 µM (inactive)
SK-OV-3
  GI50: > 10 µM (inactive)
SN12C
  GI50: > 10 µM (inactive)
SNB-75
  GI50: > 10 µM (inactive)
SR
  GI50: > 10 µM (inactive)
SW-620
  GI50: > 10 µM (inactive)
T47D
  GI50: > 10 µM (inactive)
TK-10
  GI50: > 10 µM (inactive)
UACC-257
  GI50: > 10 µM (inactive)
UACC-62
  GI50: > 10 µM (inactive)
